From PubChem BioAssay (NCI)
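At the GI50, growth is halved. At the TGI there is no net growth.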

Legend:
Assay in all cases: NCI anticancer screen, dose series, 384-well format
U251 glioblastoma = system: U251 glioblastoma
T-47D breast = system: T-47D breast
MDA-MB-231 breast = system: MDA-MB-231 breast
K-562 leukemia = system: K-562 leukemia
SN12C renal = system: SN12C renal
MOLT-4 leukemia = system: MOLT-4 leukemia
PC-3 prostate = system: PC-3 prostate
M14 melanoma = system: M14 melanoma
NCI-H226 lung = system: NCI-H226 lung
MDA-MB-468 breast = system: MDA-MB-468 breast
HCT-15 colon = system: HCT-15 colon
A498 renal = system: A498 renal
OVCAR-5 ovarian = system: OVCAR-5 ovarian
HCT-116 colon = system: HCT-116 colon
HT29 colon = system: HT29 colon
BT-549 breast = system: BT-549 breast
SK-MEL-28 melanoma = system: SK-MEL-28 melanoma
CAKI-1 renal = system: CAKI-1 renal
KM12 colon = system: KM12 colon
TK-10 renal = system: TK-10 renal
LOX IMVI melanoma = system: LOX IMVI melanoma
NCI-H522 lung = system: NCI-H522 lung
NCI-H322M lung = system: NCI-H322M lung
A549 NSCLC = system: A549 NSCLC
EKVX NSCLC = system: EKVX NSCLC
HOP-62 NSCLC = system: HOP-62 NSCLC
MALME-3M melanoma = system: MALME-3M melanoma
IGROV1 ovarian = system: IGROV1 ovarian
MCF7 breast = system: MCF7 breast
OVCAR-3 ovarian = system: OVCAR-3 ovarian
786-0 renal = system: 786-0 renal
RPMI-8226 leukemia = system: RPMI-8226 leukemia
OVCAR-4 ovarian = system: OVCAR-4 ovarian
SW-620 colon = system: SW-620 colon
SK-MEL-2 melanoma = system: SK-MEL-2 melanoma
HOP-92 NSCLC = system: HOP-92 NSCLC
OVCAR-8 ovarian = system: OVCAR-8 ovarian
NCI/ADR-RES ovarian = system: NCI/ADR-RES ovarian
UACC-62 melanoma = system: UACC-62 melanoma
MDA-MB-435 melanoma = system: MDA-MB-435 melanoma
UACC-257 melanoma = system: UACC-257 melanoma
SK-OV-3 ovarian = system: SK-OV-3 ovarian
UO-31 renal = system: UO-31 renal
ACHN renal = system: ACHN renal
HL-60(TB) leukemia = system: HL-60(TB) leukemia
HS 578T breast = system: HS 578T breast
DU-145 prostate = system: DU-145 prostate
NCI-H23 lung = system: NCI-H23 lung
RXF 393 renal = system: RXF 393 renal

## CC/C(=C(\c1ccccc1)c1ccc(OCCN(C)C)cc1)c1ccccc1
U251 glioblastoma
  GI50: 5.21 µM
  TGI: 16.2 µM
T-47D breast
  GI50: 5.64 µM
  TGI: 19.7 µM
MDA-MB-231 breast
  GI50: 11.5 µM
  TGI: 24 µM
K-562 leukemia
  GI50: 2.51 µM
  TGI: 5.33 µM
SN12C renal
  GI50: 13.6 µM
  TGI: 26.7 µM
MOLT-4 leukemia
  GI50: 2.56 µM
  TGI: 6 µM
PC-3 prostate
  GI50: 4.18 µM
  TGI: 13.7 µM
M14 melanoma
  GI50: 1.89 µM
  TGI: 3.51 µM
NCI-H226 lung
  GI50: 7.96 µM
  TGI: 20.2 µM
MDA-MB-468 breast
  GI50: 4.92 µM
  TGI: 16 µM
HCT-15 colon
  GI50: 2.05 µM
  TGI: 3.96 µM
A498 renal
  GI50: 4.05 µM
  TGI: 15 µM
OVCAR-5 ovarian
  GI50: 8.67 µM
  TGI: 21 µM
HCT-116 colon
  GI50: 5.26 µM
  TGI: 17.5 µM
HT29 colon
  GI50: 2.2 µM
  TGI: 4.16 µM
BT-549 breast
  GI50: 10.7 µM
  TGI: 22.8 µM
SK-MEL-28 melanoma
  GI50: 5.35 µM
  TGI: 16.8 µM
CAKI-1 renal
  GI50: 8.23 µM
  TGI: 20.8 µM
KM12 colon
  GI50: 3.27 µM
  TGI: 10.7 µM
TK-10 renal
  GI50: 12.7 µM
  TGI: 25.5 µM
LOX IMVI melanoma
  GI50: 4.94 µM
  TGI: 17 µM
NCI-H522 lung
  GI50: 11.4 µM
  TGI: 23.7 µM
NCI-H322M lung
  GI50: 6.11 µM
  TGI: 18.4 µM
A549 NSCLC
  GI50: 10.9 µM
  TGI: 23.7 µM
EKVX NSCLC
  GI50: 14.7 µM
  TGI: 28.1 µM
HOP-62 NSCLC
  GI50: 12.9 µM
  TGI: 25.7 µM
MALME-3M melanoma
  GI50: 1.99 µM
  TGI: 3.66 µM
IGROV1 ovarian
  GI50: 14.2 µM
  TGI: 27.4 µM
MCF7 breast
  GI50: 1.65 µM
  TGI: 7.98 µM
OVCAR-3 ovarian
  GI50: 9.12 µM
  TGI: 21.3 µM
786-0 renal
  GI50: 4.92 µM
  TGI: 15.7 µM
RPMI-8226 leukemia
  GI50: 1.94 µM
  TGI: 3.66 µM
OVCAR-4 ovarian
  GI50: 12.9 µM
  TGI: 25.7 µM
SW-620 colon
  GI50: 9.21 µM
  TGI: 21.6 µM
SK-MEL-2 melanoma
  GI50: 4.1 µM
  TGI: 15.8 µM
HOP-92 NSCLC
  GI50: 14.7 µM
  TGI: 28.1 µM
OVCAR-8 ovarian
  GI50: 11.5 µM
  TGI: 24 µM
NCI/ADR-RES ovarian
  GI50: 12 µM
  TGI: 24.6 µM
UACC-62 melanoma
  GI50: 2.77 µM
  TGI: 7.86 µM
MDA-MB-435 melanoma
  GI50: 7.19 µM
  TGI: 19.5 µM
UACC-257 melanoma
  GI50: 1.97 µM
  TGI: 3.56 µM
SK-OV-3 ovarian
  GI50: 10.6 µM
  TGI: 22.8 µM
UO-31 renal
  GI50: 14.9 µM
  TGI: 28.4 µM
ACHN renal
  GI50: 16.4 µM
  TGI: 30.3 µM
HL-60(TB) leukemia
  GI50: 1.93 µM
  TGI: 3.39 µM
HS 578T breast
  GI50: 14 µM
  TGI: 27.2 µM
DU-145 prostate
  GI50: 12.8 µM
  TGI: 25.9 µM
NCI-H23 lung
  GI50: 10.6 µM
  TGI: 22.6 µM
RXF 393 renal
  GI50: 3.43 µM
  TGI: 8.75 µM
